Measurements from US20240199564A1, “TRPM8 AGONISTS AS COOLING AGENTS AND FOR THE TREATMENT OF DISEASE” (Concentric Analgesics, Inc., priority 2021, published 2024).
Where a name gives a salt, the structure may show the parent alone. Read-outs that look alike come from different tables or passages of the source.

Experiments:
[1] = Solution state stability assay; format: physicochemical; details: 50° C.; for aqueous stability / hydrolysis, comparison in words: buffer, 28 days; for % degradation at 28 days: HPLC
Method: Compounds were incubated in the buffer media indicated (ingredients for making of PBS buffer and sodium citrate/citric acid buffer were obtained from Sigma-Aldrich, St. Louis, MO, USA). The reactions were conducted at either 50° C. and for 28 days. Samples were collected at specific time points and analyzed for % degradation of the parent compound based on UV/Vis analysis.
Methods: Samples were weighed using a Mettler Toledo XS105 analytical balance (accurate to +/−0.01 mg). Accurate dilutions were made with a P1000, P200, or P20 Gilson Pipetman, or an Eppendorf Maxipettor 1-10 mL pipettor. pH Measurements were made with a Hanna Instruments HI 4222 pH meter and a Hanna instruments HI 1330B micro pH probe. Samples were analyzed via high pressure liquid chromatography using an Agilent series 1100 HPLC instrument with a Grace Alltima column. Chromatograms were manually integrated. Individual chromatograms are assigned an automatic HPLC identification number.
Freshly prepared 1.0 mg/mL solution of each compound listed in Table # was allotted into two-dram clear glass vials. […] The vials were then stored in an oven set to 50° C. At the appropriate time points, the vials were removed from the oven, vortexed for 30 seconds and an aliquot (400 μL) was pipetted into an HPLC vial and quenched with 1% TFA in ACN (400 μL). […] For all samples, aliquots were taken after 28 days. Quenched vials were immediately analyzed via HPLC.

[2] = biological target: T1, human TRPM8 receptor expressed in transfected 293H cells (Homo sapiens, UniProt Q7Z2W7); test: TRPM8 Human Transient Potential Ion Channel Cell Based Agonist Calcium Flux Assay (FLIPR)
T1 construct: expressed in transfected cells; host or cells: 293H cells
T1 sequence (Q7Z2W7 whole entry): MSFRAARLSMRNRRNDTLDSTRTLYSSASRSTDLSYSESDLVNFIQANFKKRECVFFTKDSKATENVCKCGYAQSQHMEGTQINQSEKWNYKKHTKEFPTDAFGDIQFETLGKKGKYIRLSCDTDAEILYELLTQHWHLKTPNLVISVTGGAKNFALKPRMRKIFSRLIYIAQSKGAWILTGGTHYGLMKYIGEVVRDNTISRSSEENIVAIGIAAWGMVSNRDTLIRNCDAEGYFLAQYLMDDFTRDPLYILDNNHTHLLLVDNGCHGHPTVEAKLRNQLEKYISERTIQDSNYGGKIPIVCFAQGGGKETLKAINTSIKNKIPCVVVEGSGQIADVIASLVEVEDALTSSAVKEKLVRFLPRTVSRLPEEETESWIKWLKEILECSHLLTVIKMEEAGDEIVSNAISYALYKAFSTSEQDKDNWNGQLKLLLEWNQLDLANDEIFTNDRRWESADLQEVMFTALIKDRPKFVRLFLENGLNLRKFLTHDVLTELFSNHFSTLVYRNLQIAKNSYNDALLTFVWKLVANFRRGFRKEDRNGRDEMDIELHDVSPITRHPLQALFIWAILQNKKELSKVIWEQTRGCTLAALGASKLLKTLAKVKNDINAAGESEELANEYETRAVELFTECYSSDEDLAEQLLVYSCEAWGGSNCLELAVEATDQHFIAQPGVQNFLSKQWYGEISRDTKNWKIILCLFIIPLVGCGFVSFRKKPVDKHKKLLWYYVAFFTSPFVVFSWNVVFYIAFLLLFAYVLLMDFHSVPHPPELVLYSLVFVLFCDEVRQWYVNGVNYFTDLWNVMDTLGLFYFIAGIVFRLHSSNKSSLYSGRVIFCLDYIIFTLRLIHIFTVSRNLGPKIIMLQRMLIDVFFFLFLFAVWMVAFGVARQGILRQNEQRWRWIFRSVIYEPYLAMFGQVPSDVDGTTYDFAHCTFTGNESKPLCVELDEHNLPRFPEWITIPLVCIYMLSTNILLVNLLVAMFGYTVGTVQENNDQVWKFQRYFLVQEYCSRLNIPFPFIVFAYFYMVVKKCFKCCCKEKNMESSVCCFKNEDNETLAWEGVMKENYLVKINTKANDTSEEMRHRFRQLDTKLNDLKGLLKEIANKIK
From the text: This example discloses results from TRPM8 Human Transient Potential Ion Channel Cell Based Agonist Calcium Flux Assay. Evaluation of the agonist activity of compounds at the human TRPM8 receptor expressed in transfected 293H cells, determined by measuring their effect on cytosolic Ca2+ ion mobilization using a fluorometric detection method.
Protocol: The cells are suspended in DMEM buffer (Invitrogen), then distributed in microplates at a density of 3×10^4 cells/well. The fluorescent probe (Fluo4 Direct, Invitrogen) in HBSS buffer (Invitrogen) complemented with 20 mM Hepes (Invitrogen) (pH 7.4) is then added into each well and equilibrated with the cells for 60 min at 37° C. then 15 min at 22° C. Thereafter, the assay plates are positioned in a microplate reader (CellLux, PerkinElmer) which is used for the addition of the test compound, reference agonist or HBSS buffer (basal control), and the measurements of changes in fluorescence intensity which varies proportionally to the free cytosolic Ca2+ ion concentration. For stimulated control measurements, Icilin at 3 μM is added in separate assay wells. The results are expressed as a percent of the control response to 3 μM icilin. The standard reference agonist is Icilin, which is tested in each experiment at several concentrations to generate a concentration-response curve from which its EC50 value is calculated. (Behrendt, H. J., Germann, T., Gillen, C and Hatt, H. and Jostock, R. (2004), Characterization of the mouse cold-menthol receptor TRPM8 and vanilloid receptor type-1 VR1 using a fluorometric imaging plate reader (FLIPR) assay, Br. J. Pharmacol., 141: 737.)
Data analysis: EC50 values were determined as the concentration of test substance required to produce half-maximal increases in [Ca^2+]. Maximal [Ca^2+] responses were measured as peak fluorescence intensity (FI) minus basal FI, and expressed as percentages of the maximum response to icilin. Data are given as means±s.e.m., unless otherwise stated.
The EC50 values (concentration producing a half-maximal response) and IC50 values (concentration causing a half-maximal inhibition of the control agonist response) were determined by non-linear regression analysis of the concentration-response curves generated with mean replicate values using Hill equation curve fitting:
where Y=response, A=left asymptote of the curve, D=right asymptote of the curve, C=compound concentration, and C50=EC50, and nH=slope factor.

[3] = Solubility assay in DI water; format: physicochemical; details: thermodynamic from solid, HCl salts, visual, stepwise dilution from 200 mg/mL, sonication and vortex
Method: In order to determine the aqueous solubility of the compounds indicated, the HCl salts of the following compounds were incubated at 200 mg/mL in DI water followed by sonication for 60 seconds and then vortex stirring for 60 seconds. If insoluble material was observed, the sample was diluted to 150, 100, 50, 25, or 20 mg/mL until no insoluble material was observed. After each dilution, each sample was sonicated for 60 seconds, vortexed for 60 seconds and let equilibrate with occasional shaking for 30 minutes.

[4] = pH = ~5.0 (0.2 M aqueous sodium citrate/citric acid buffer)
[5] = pH = ~7.4 (1X Phosphate Buffered Saline)
[6] = Ca2+ mobilization, fluorometric detection, 293H cells, response relative to 3 μM icilin, read-out: TRPM8 agonist EC50

Row | SMILES | EC50 [2, 6] | also measured
1 | CC(C)[C@@H]1CC[C@@H](C)C[C@H]1C(=O)N(C)Cc1cccc(CN(C)C)c1.Cl [Compound 3, (1R,2S,5R)-N-(3-((dimethylamino)methyl)benzyl)-2-isopropyl-N,5-dimethylcyclohexanecarboxamide hydrochloride] | 752 nM | aqueous stability / hydrolysis, comparison in words [1]: greatest aqueous stability; % degradation at 28 days [1, 4]: Noneª None^b; % degradation at 28 days [1, 5]: Noneª None^b
2 | CC(C)[C@@H]1CC[C@@H](C)C[C@H]1OCC(=O)NCc1ccc(CN)cc1 [Compound 2, N-(4-(aminomethyl)benzyl)-2-(((1R,2S,5R)-2-isopropyl-5-methylcyclohexyl)oxy)acetamide hydrochloride] | 3310 nM | 
3 | CC(C)[C@@H]1CC[C@@H](C)C[C@H]1C(=O)NCc1ccc(COC2CCNCC2)cc1 [Compound 18, (1R,2S,5R)-2-isopropyl-5-methyl-N-(4-((piperidin-4-yloxy)methyl)benzyl)cyclohexanecarboxamide hydrochloride] | 207 nM | 
4 | CC(C)[C@@H]1CC[C@@H](C)C[C@H]1C(=O)NCc1cccc(N2CCN(C(=O)CN)CC2)c1 [Compound 6, (1R,2S,5R)-N-(3-(4-(2-aminoacetyl)piperazin-1-yl)benzyl)-2-isopropyl-5-methylcyclohexanecarboxamide dihydrochloride] | 377 nM | 
5 | CC(C)[C@@H]1CC[C@@H](C)C[C@H]1C(=O)NCc1ccc(CN)cc1F [Compound 14, (1R,2S,5R)-N-(4-(aminomethyl)-2-fluorobenzyl)-2-isopropyl-5-methylcyclohexanecarboxamide hydrochloride] | 96 nM | 
6 | CC(C)[C@@H]1CC[C@@H](C)C[C@H]1C(=O)NCc1ccccc1N1CCN(C(=O)CN)CC1 [Compound 9, (1R,2S,5R)-N-(2-(4-(2-aminoacetyl)piperazin-1-yl)benzyl)-2-isopropyl-5-methylcyclohexanecarboxamide dihydrochloride] | > 10000 nM | 
7 | CC(C)[C@@H]1CC[C@@H](C)C[C@H]1C(=O)NCc1cccc(N2CCNCC2)c1 [Compound 5, (1R,2S,5R)-2-isopropyl-5-methyl-N-(3-(piperazin-1-yl)benzyl)cyclohexanecarboxamide dihydrochloride] | 220 nM | 
8 | CC(C)[C@@H]1CC[C@@H](C)C[C@H]1C(=O)NCc1ccc(CCN)cc1 [Compound 12, (1R,2S,5R)-N-(4-(2-aminoethyl)benzyl)-2-isopropyl-5-methylcyclohexanecarboxamide hydrochloride] | 198 nM | 
9 | CC(C)[C@@H]1CC[C@@H](C)C[C@H]1OCC(=O)N(C)Cc1cccc(CN(C)C)c1 [Compound 1, N-(3-((dimethylamino)methyl)benzyl)-2-(((1R,2S,5R)-2-isopropyl-5-methylcyclohexyl)oxy)-N-methylacetamide hydrochloride] | 973 nM | 
10 | CC(C)[C@@H]1CC[C@@H](C)C[C@H]1C(=O)NCc1ccc(CN(C)Cc2ccccc2)cc1 [Compound 19, (1R,2S,5R)-N-(4-((benzyl(methyl)amino)methyl)benzyl)-2-isopropyl-5-methylcyclohexanecarboxamide hydrochloride] | 34800 nM | 
11 | CC(C)[C@@H]1CC[C@@H](C)C[C@H]1C(=O)NCc1cc(CN)ccn1 [Compound 17, (1R,2S,5R)-N-((4-(aminomethyl)pyridin-2-yl)methyl)-2-isopropyl-5-methylcyclohexanecarboxamide hydrochloride] | 58 nM | 
12 | CC(C)[C@@H]1CC[C@@H](C)C[C@H]1C(=O)NCc1ccc(CN2CCOCC2)cc1 [Compound 22, (1R,2S,5R)-2-isopropyl-5-methyl-N-(4-(morpholinomethyl)benzyl)cyclohexanecarboxamide hydrochloride] | 890 nM | 
13 | CC(C)[C@@H]1CC[C@@H](C)C[C@H]1C(=O)NCc1ccc(CN2CCCC2)cc1 [Compound 20, (1R,2S,5R)-2-isopropyl-5-methyl-N-(4-(pyrrolidin-1-ylmethyl)benzyl)cyclohexanecarboxamide hydrochloride] | 150 nM | 
14 | CC(C)[C@@H]1CC[C@@H](C)C[C@H]1C(=O)NCc1ccc2c(c1)CCNC2 [Compound 11, (1R,2S,5R)-2-isopropyl-5-methyl-N-((1,2,3,4-tetrahydroisoquinolin-6-yl)methyl)cyclohexanecarboxamide hydrochloride] | 170 nM | 
15 | CC(C)[C@@H]1CC[C@@H](C)C[C@H]1C(=O)N(C)c1cccc(CN)c1 [Aniline 4] |  | % degradation at 28 days [1, 4]: ~23.5%; % degradation at 28 days [1, 5]: ~31.9%
16 | CC(C)[C@@H]1CC[C@@H](C)C[C@H]1C(=O)NCc1ccc(N2CCNCC2)cc1.Cl.Cl [Compound 10, (1R,2S,5R)-2-isopropyl-5-methyl-N-(4-(piperazin-1-yl)benzyl)cyclohexanecarboxamide dihydrochloride] | 110 nM | solubility at 30 min [3]: ≥ 200 mg/mL
17 | CC(N)c1ccc(CNC(=O)[C@@H]2C[C@H](C)CC[C@H]2C(C)C)cc1 (stereo partly drawn) [Compound 13, (1R,2S,5R)-N-(4-(1-aminoethyl)benzyl)-2-isopropyl-5-methylcyclohexanecarboxamide hydrochloride] | 153 nM | 
18 | CC(C)[C@@H]1CC[C@@H](C)C[C@H]1OC(=O)N(C)c1cccc(CN)c1 [Aniline 2] |  | % degradation at 28 days [1, 4]: ~24.3%; % degradation at 28 days [1, 5]: ~24.4%
19 | CC(C)[C@@H]1CC[C@@H](C)C[C@H]1OCC(=O)N(C)c1cccc(CN)c1 [Aniline 3] |  | aqueous stability / hydrolysis, comparison in words [1]: more stable; % degradation at 28 days [1, 4]: ~0.4%; % degradation at 28 days [1, 5]: ~8.1%
20 | CC(C)[C@@H]1CC[C@@H](C)C[C@H]1C(=O)NCc1ccc(CNC(=O)CN)cc1 [Compound 7, (1R,2S,5R)-N-(4-((2-aminoacetamido)methyl)benzyl)-2-isopropyl-5-methylcyclohexanecarboxamide hydrochloride] | 511 nM | 
21 | CC(C)[C@@H]1CC[C@@H](C)C[C@H]1C(=O)NCc1ccc(C2CCNCC2)cc1.Cl [Compound 16, (1R,2S,5R)-2-isopropyl-5-methyl-N-(4-(piperidin-4-yl)benzyl)cyclohexanecarboxamide hydrochloride] | 345 nM | solubility at 30 min ([3]; DI water): ≥ 20 mg/mL
22 | CC(C)[C@@H]1CC[C@@H](C)C[C@H]1C(=O)NCc1ccc(CN(C)C)cc1 [Compound 21, (1R,2S,5R)-N-(4-((dimethylamino)methyl)benzyl)-2-isopropyl-5-methylcyclohexanecarboxamide hydrochloride] | 421 nM | 
23 | CC(C)[C@@H]1CC[C@@H](C)C[C@H]1OC(=O)Nc1cccc(CN)c1 [Aniline 1] |  | % degradation at 28 days [1, 4]: ~36.2%; % degradation at 28 days [1, 5]: ~41.2%
24 | CC(C)[C@@H]1CC[C@@H](C)C[C@H]1C(=O)NCc1ccc(CN2CCNCC2)cc1.Cl.Cl [Compound 15, (1R,2S,5R)-2-isopropyl-5-methyl-N-(4-(piperazin-1-ylmethyl)benzyl)cyclohexanecarboxamide dihydrochloride] |  | solubility at 30 min [3]: ≥ 200 mg/mL; EC50 [2]: 79 nM
